Data set [1] deals with primary human hepatocytes. Put plainly: RT-qPCR gene expression in primary human hepatocytes. To be noted: PHH, MI891 5 μM. It counts as cell-based. As to the method: Cryopreserved human hepatocytes from three donors were purchased from BioIVT (Westbury, New York, USA). The characteristics of the donors were as follows: donor 1, donor 2, donor 3 - person. PHHs were seeded in PHH medium supplemented with 10% fetal bovine serum at a density of 350,000 cells per well of rat tail collagen type I-coated 24-well plates (catalog number 354408, Corning, New York, USA). Cultivation medium was replaced with serum-free PHH medium 2 h later. […] Rifampicin, SPA70, and dimethyl sulfoxide (DMSO) were all purchased from Sigma-Aldrich (St. Louis, Missouri, USA, now part of Merck).
RT-qPCR was utilized to investigate gene expression in HepaRG and PHH. Total RNA was extracted from these cells using the phenol–chloroform method. The concentration of the isolated RNA was then measured using a Nanodrop 1000 spectro-photometer (Thermo Fisher Scientific).
Following RNA isolation, reverse transcription was performed to convert RNA into complementary DNA (cDNA). This step was carried out using the High-capacity cDNA reverse transcription kit (Cat. No. 4374966, ThermoFisher Scientific). The resulting cDNA served as the template for subsequent qPCR reactions.
The qPCR reactions were conducted on the QuantStudio 6 Flex Real-Time PCR System (ThermoFisher Scientific, Waltham, Mas-sachusetts). For these reactions, TaqMan Universal master mix II (Cat. No. 4440047, ThermoFisher Scientific) and TaqMan assays (FAM) utilized in this study are detailed in the Supporting Information. To quantify gene expression, the cycle threshold (Ct) values of the target genes were normalized to the Ct values of reference genes HPRT1 or GAPDH (HepaRG) or TBP (PHH). The normalized values were then expressed as fold changes (2−ΔΔCt) relative to the DMSO control at the specified time points, with the control set as 1.
In general terms: In qPCR the cycle at which signal appears reflects the starting amount.

The next data set has as its target T1, human CAR LBD (Homo sapiens, UniProt Q14994).
T1 sequence (Q14994 103-352): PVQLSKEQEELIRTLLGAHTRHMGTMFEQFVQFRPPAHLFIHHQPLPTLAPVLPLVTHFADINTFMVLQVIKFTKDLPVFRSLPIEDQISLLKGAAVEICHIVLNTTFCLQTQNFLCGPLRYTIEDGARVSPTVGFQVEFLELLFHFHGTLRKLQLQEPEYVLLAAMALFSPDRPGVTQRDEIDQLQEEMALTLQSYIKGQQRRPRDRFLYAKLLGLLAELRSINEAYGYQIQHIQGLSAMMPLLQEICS
Put plainly: LanthaScreen TR-FRET CAR Coactivator assay. The data set is classed as biochemical. The settings on record: nb = no binding. As to the method:
We utilized the LanthaScreen TR-FRET CAR Coactivator Binding Assay Kit, goat (Thermo Fisher Scientific, Cat. No. PV4836), which includes GST-tagged human CAR LBD and a fluorescein-labeled PGC1α coactivator peptide. The assay was performed with slight modifications to the manufacturer’s protocol, as previously reported. […] The interaction with the PXR ligand-binding domain (LBD) was assessed using the LanthaScreen TR-FRET PXR Competitive Binding Assay (Thermo Fisher Scientific, PV4839), as previously described. This assay quantifies the ability of test compounds to displace a fluorescent PXR ligand from the receptor. Fluorescence readings were taken on a Synergy 2 Multi-Mode Microplate Reader (BioTek, Winooski, VT). The half-maximal inhibitory concentration (IC50) for PXR LBD was calculated from at least eight data points using GraphPad Prism software.

Data set [2] can be described thus: Plasma stability, human plasma. It counts as in vitro ADME. To be noted: up to 120 min, read-out: Plasma stability, t1/2 (min), human.
Data set [3] deals with T2, human wild-type CAR (CARwt) (Homo sapiens, UniProt Q14994).
T2 construct: expressed in transfected cells; host or cells: HepG2
Put plainly: CARwt luciferase reporter gene assay in HepG2. It counts as cell-based. As to the method: Rhesus monkey, mouse, and rat PXR expression vectors (100 ng/well each) were also obtained from GenScript. […] Carlberg (University of Kuopio, Kuopio, Finland).
The cells were cultured in DMEM medium (Merck) supplemented with 10% fetal bovine serum.

Data set [4] in a line: Microsomal stability, human microsomes. The data set is classed as in vitro ADME. To be noted: liver microsomes; 0.5 mg/mL human microsomes, 5 μM, up to 45 min; read-out: Microsomal stability, t1/2 (min), human. As to the method: The protocols and reagents for the plasma protein binding assay and metabolic stability testing in human and mouse liver microsomes are detailed in our previous report. […] The stability of compounds was tested in human and mouse microsomes (ThermoFisher Scientific). Compounds were tested in triplicate with or without NADPH wells as a negative control for cytochrome P450 metabolism. […] Each assay included a substrate with known activity as a positive control. Time points were analyzed by LC/MS/MS. The peak area for the parent compound is compared to the time zero sample in order to assess the amount of remaining compound.
On the technique in general: Microsomes from liver hold many membrane-bound enzymes, among them those of drug oxidation.

Data set [5] has as its target T3, farnesoid X receptor (FXR) (Homo sapiens, UniProt Q96RI1).
T3 construct: the full-length expression vector was paired with pFXRE-luc luciferase construct; expressed in transfected cells
Nature of the data set: FXR luciferase reporter assay, agonistic and antagonistic setups. It counts as cell-based. The settings on record: prototype ligand 6-OCA. How it is done: For the farnesoid X receptor (FXR) luciferase gene reporter assay, the full-length expression vector was paired with pFXRE-luc luciferase construct. The p1A1-luc construct was used in the aryl hydrocarbon receptor (AhR) assays with pRL-TK for normalization. Gal4-LXR-α/β, and Gal4-PPAR-γ constructs were used with the pGAL4 UAS-luc construct. For the VDR assay, expression vector pSG5-hVDR together with pVDRE-luc constructs was used. Firefly and Renilla luciferase activities were analyzed using a Dual reporter assay (Promega). For the nuclear receptor assays, prototype ligands were used at the following concentrations: Calcitriol for VDR (100 nM), GW3965 for LXRα and LXRβ (10 μM), 6-OCA for FXR (1 μM), fenofibrate for PPARα (10 μM), estradiol for ERα and β (10 μM), rosiglitazone for PPARγ (10 μM), 3-MC for AhR (5 μM), and TCPOBOP for mCAR (10 μM). Detailed descriptions and protocols are detailed in our recent publication. ,

“And” between values parts separate entries of the source, which are not always exact repeats. Identical values can stand only once.

T2 sequence (Q14994 1-348 isoform Q14994-2): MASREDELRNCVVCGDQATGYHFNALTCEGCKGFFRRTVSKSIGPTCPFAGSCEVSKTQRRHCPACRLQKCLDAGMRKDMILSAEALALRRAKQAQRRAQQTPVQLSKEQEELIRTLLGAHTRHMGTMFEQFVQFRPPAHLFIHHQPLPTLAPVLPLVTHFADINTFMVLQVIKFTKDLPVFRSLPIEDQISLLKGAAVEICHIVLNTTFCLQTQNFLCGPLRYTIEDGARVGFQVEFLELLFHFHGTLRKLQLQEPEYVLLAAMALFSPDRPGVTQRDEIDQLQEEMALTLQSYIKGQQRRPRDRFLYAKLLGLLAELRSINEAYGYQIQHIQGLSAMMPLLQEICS
T3 sequence (Q96RI1 whole entry): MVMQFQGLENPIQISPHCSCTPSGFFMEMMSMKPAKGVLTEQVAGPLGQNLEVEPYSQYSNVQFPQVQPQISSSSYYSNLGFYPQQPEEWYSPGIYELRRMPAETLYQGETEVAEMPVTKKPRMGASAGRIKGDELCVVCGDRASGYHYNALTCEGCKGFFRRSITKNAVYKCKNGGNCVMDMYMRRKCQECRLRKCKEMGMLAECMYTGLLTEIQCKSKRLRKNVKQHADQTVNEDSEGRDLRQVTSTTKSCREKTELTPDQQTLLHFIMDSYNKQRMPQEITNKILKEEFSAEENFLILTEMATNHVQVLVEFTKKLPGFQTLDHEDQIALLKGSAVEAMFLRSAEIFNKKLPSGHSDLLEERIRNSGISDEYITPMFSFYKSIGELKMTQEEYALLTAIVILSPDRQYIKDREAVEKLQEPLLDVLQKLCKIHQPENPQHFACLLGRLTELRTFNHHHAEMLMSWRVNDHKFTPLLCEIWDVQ

With `NC(=O)c1cc(Cn2cc(-c3c(-c4ccc(Cl)cc4)nc4c(F)cc(F)cn34)nn2)ccc1Cl` [Compound 11, 2-Chloro-5-((4-(2-(4-chlorophenyl)-6,8-difluoroimidazo[1,2-a]pyridin-3-yl)-1H-1,2,3-triazol-1-yl)methyl)-benzamide], in data set [1] (in the presence and absence of rifampicin), the “CYP7A1, HMGCS2, PCK1 and MKI67 mRNA” value is recorded as “significant downregulation”. For the same compound, in data set [1] (all donors), the “CYP2B6 mRNA” value is “may slightly upregulate”. Besides, the “CYP3A4 mRNA expression” value in data set [1] (three donors, rifampicin 10 μM, 48 h) was “suppressed the expression of CYP3A4 mRNA and attenuated its induction by rifampicin”. Further, the “CAR TR-FRET (EC50, μM)” value at human CAR LBD (listed as 11 (MI891)) was “nb”; on human CAR LBD (listed as MI891), “no binding activity”. For the same compound, the half-life in data set [2] is greater than 120 min. Besides, in data set [3] (HepG2, read-out: CARwt activation EC50), the concentration for a half-maximal effect (EC50) (in general, the concentration needed to bring the measured effect to its halfway point) was ~137 µM and 137 µM. Also, the “activation of CARwt” value in data set [3] (at concentrations up to 10 μM) is given as “no significant activation”. Besides, in data set [4], the half-life at 5 μM was greater than 45 min. Also, the “agonistic or antagonistic activity on FXR” value in data set [5] was “no significant agonistic or antagonistic activities”.

These data come from publication PMC12305494, “Discovery of PXR Antagonist MI891 and PXR Degrader MI1013 and Their Roles in Hepatic Gene Regulation” (Journal of Medicinal Chemistry, 2025).
